Assay results published in patent US7556938B1, “Nucleic acids encoding potassium channel interactors” (Millennium Pharmaceuticals, Inc., priority 1998, dated 2009).

What was measured:
[1] = molecular target: T1, Kv4.2 (Rattus norvegicus, UniProt Q63881); assay: AA modulation of Kv4.2 current (Kv4.2 expressed alone) in CHO cells; assay type: cell-based; settings: Kv4.2 alone, 10 μM AA
T1 construct: expressed in transfected cells; host or cells: CHO cells, transient transfection with GFP co-transfected
T1 sequence (Q63881 1-630): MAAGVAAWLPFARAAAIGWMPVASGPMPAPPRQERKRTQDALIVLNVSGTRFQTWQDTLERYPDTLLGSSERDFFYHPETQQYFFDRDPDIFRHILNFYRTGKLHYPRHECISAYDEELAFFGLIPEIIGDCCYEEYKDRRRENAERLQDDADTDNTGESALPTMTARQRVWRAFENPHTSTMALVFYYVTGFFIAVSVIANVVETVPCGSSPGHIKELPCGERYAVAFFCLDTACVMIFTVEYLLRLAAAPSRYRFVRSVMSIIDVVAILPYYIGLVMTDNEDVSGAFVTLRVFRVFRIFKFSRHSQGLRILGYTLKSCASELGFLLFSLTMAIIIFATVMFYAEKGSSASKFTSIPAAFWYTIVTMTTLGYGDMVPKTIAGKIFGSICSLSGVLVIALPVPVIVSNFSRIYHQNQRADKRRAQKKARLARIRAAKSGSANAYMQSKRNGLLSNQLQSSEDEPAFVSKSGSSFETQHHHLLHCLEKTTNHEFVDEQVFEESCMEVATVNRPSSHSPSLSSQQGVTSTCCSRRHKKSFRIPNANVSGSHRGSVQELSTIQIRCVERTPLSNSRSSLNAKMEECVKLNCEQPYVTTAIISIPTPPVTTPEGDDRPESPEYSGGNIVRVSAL
Method: (§1) HEK 293 and CHO cells were used for recordings 1-3 days after a transient transfection. Whole-cell currents were recorded from cells expressing GFP, identified by their green fluorescence. […] After Gigaseal and ruptured whole-cell configuration access, resistance was less than 10 MOhms. Whole-cell bath solutions were made from a 10× Hank's balanced salt solution (GibcoBRL) with the following final concentration (in mM): 138 NaCl, 5.4 KCl, 1.3 MgCl2, 1.3 CaCl2, 5.5 D-Glukos and 10 HEPES, pH 7.4. The intracellular electrode solution consisted of (in mM) 140 KCl, 10 HEPES, 10 EGTA, 0.5 MgCl2, pH 7.3. All chemicals were from Sigma (St. Louis, Mo.) or Fisher Scientific (Houston, Tex.). Membrane currents were recorded using a EPC9 patch-clamp amplifier (HEKA, Germany). Data were analyzed using Matlab (Natick, Ma), and leak subtracted if necessary. All experiments were done at room temperature. […]

[2] = tested on: Kv4 α subunits; settings: in oocytes; Villarroel and Schwarz (1996); read-out: IC50 of arachidonic acid on Kv4 α subunits; cited from earlier work
[3] = molecular target: T2, Kv4.2/KChIP1 (Rattus norvegicus, UniProt Q63881); assay: AA modulation of Kv4.2/KChIP1 current in CHO cells; assay type: cell-based; settings: Kv4.2/KChIP1, 10 μM AA
T2 construct: expressed in transfected cells; host or cells: CHO cells
T2 sequence (Q63881 1-630): T1 sequence (Q63881 1-630)
T2 sequence (Q8R426 1-216 isoform Q8R426-2 partner): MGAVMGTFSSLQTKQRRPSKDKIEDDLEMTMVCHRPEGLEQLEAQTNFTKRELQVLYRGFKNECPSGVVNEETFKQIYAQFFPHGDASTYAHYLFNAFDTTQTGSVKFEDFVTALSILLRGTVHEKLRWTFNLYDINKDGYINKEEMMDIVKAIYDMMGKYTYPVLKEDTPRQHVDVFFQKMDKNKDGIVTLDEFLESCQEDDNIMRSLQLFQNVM
Method: as §1

[4] = tested on: Kv4.3; assay: Fatty acid modulation of Kv4.3 current (Kv4.3 alone) in Xenopus oocytes; assay type: cell-based, rat
Method: Frogs underwent no more than two surgeries and surgeries were performed by well established techniques. Frogs were anesthetized with ice. Total cRNA (1-10 ng) was injected into stage IV Xenopus oocytes that were harvested the previous day. The Xenopus oocytes were incubated in ND96 containing (in mM) 96 NaCl, 2 KCl, 1.8 CaCl2, 1 MgCl2, 5 HEPES, pH 7.6, plus (Gentamycin 50 μg/ml) at 18° C. Xenopus oocytes were studied 3-7 days after injection. The two-electrode voltage-clamp recordings were performed in ND96 solution using a TURBO TEC 03 Clamp Amplifier (ALA Scientific Instruments, Westbury, N.Y.). Both electrodes were filled with 3 M KCl and had electrode resistances ranging from 0.2-1 MOhm. The current signals were filtered at 1000 Hz before transferred on a PC (Gateway, Calif.) using the PULSE software (HEKA, Germany). In this Example, the hypothesis that […] were the missing auxiliary subunits that accounted for the above kinetic discrepancy was investigated by expressing Kv4 alone or together with […] in both CHO cells and Xenopus oocytes, and measuring their inactivation time constants (using art known techniques as described in, for example, An et al. (2000) Nature 403:553-6; Keros, S. and […]. Neuroscience 17: 3476-87; and Villarroel, A. and […]. Neuroscience 16:2522-32). The effects of different concentrations of arachidonic acid on Kv4/KChIP current was studied in Xenopus oocytes. Because the physiological concentrations of arachidonic acid are often under 10 μM (Needleman, et al., 1986 Annu Rev Biochem 55:69-102; Anderson and Welsh, 1990, Proc Natl Acad Sci USA 87:7334-8; Meves, 1994, Prog Neurobiol 43:175-86), arachidonic acid was tested in the 1-10 μM range. […] Further, the slope of amplitude reduction as a function of increasing concentrations was very similar with or without the presence of […]. […] Villarroel and Schwarz, (1996) J.

## CCCCC/C=C\C/C=C\C/C=C\C/C=C\CCCC(=O)O [arachidonic acid]
[1]
  Peak amplitude (pA ± SEM): 336 ± 82 pA
[1]; listed as AA
  Inactivation time constant (ms ± SEM): 32 ± 2 ms
[2]
  IC50: ~8 µM
[3]
  Peak amplitude (pA ± SEM): 2827 ± 496 pA
[3]; listed as AA
  Inactivation time constant (ms ± SEM): 37 ± 3 ms
[4]; Kv4.3 alone, 10 μM AA
  Inactivation time constant (ms ± SEM): 66 ± 6 ms
  Peak amplitude (μA ± SEM): 13 ± 1 μA
[4]; Kv4.3 alone, 10 μM fatty acid, vs no-fatty acid control
  block of Kv4.3 peak amplitude: inhibited significantly
[4]; Kv4.3 alone, 1-10 μM arachidonic acid
  block of Kv4.3 peak amplitude: concentration-dependent block
[4]; absence of KChIP1, 1-10 μM arachidonic acid
  effect on inactivation time constant: unchanged at all arachidonic acid concentrations tested
